How the values were obtained:
Assay type in all cases: cell-based
[1] = system: E. coli DH5α; experiment: Antibacterial activity: MIC and growth curve against E. coli DH5α in 96-well plate; details: minimal inhibitory concentration against E. coli DH5α; 96-well plate, 5×10^5 CFU/mL, 37° C., judged after 8 h
Method in brief: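 Log-phase bacteria (OD600 ~0.5) resuspended in LB at 5×10^5 CFU/mL, exposed to recombinant protein at 50, 25, 12.5 μg/mL final in triplicate, 37 °C shaking at 175 rpm. OD600 read every 30 min; MIC is lowest concentration showing no growth.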

[2] = system: E. coli BL21; experiment: MIC against Gram-negative bacteria: E. coli BL21
Method in brief: (§1)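 Bacteria grown in LB at 37° C with shaking to McFarland 0.5, pelleted and resuspended in fresh LB, then seeded at 5×10^5 CFU/mL per well. Purified recombinant human EGF domain proteins were two-fold serially diluted in triplicate and plates shaken at 37° C, 175 rpm. MIC is the lowest protein concentration with no bacterial growth.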

[3] = system: Pseudomonas aeruginosa; experiment: MIC against Gram-negative bacteria: Pseudomonas aeruginosa
Method in brief: as §1

[4] = system: Klebsiella pneumonia; experiment: MIC against Gram-negative bacteria: Klebsiella pneumonia
Method in brief: as §1

[5] = system: Enterobacter cloacae; experiment: MIC against Gram-negative bacteria: Enterobacter cloacae
Method in brief: as §1

[6] = system: Aeromonas hydrophila; experiment: MIC against Gram-negative bacteria: Aeromonas hydrophila
Method in brief: as §1

[7] = system: Citrobacter diversus; experiment: MIC against Gram-negative bacteria: Citrobacter diversus
Method in brief: as §1

[8] = system: Moraxella catarrhalis; experiment: MIC against Gram-negative bacteria: Moraxella catarrhalis
Method in brief: as §1

[9] = system: Proteus mirabilis; experiment: MIC against Gram-negative bacteria: Proteus mirabilis
Method in brief: as §1

[10] = system: Proteus vulgaris; experiment: MIC against Gram-negative bacteria: Proteus vulgaris
Method in brief: as §1

[11] = system: Serratia marcescens; experiment: MIC against Gram-negative bacteria: Serratia marcescens
Method in brief: as §1

[12] = E. coli BL21, 5×10^5 CFU/mL, 10 h cultivation at 37° C.
[13] = Pseudomonas aeruginosa, 5×10^5 CFU/mL, 10 h cultivation at 37° C.
[14] = Klebsiella pneumonia, 5×10^5 CFU/mL, 10 h cultivation at 37° C.
[15] = Enterobacter cloacae, 5×10^5 CFU/mL, 10 h cultivation at 37° C.
[16] = Aeromonas hydrophila, 5×10^5 CFU/mL, 10 h cultivation at 37° C.
[17] = Citrobacter diversus, 5×10^5 CFU/mL, 10 h cultivation at 37° C.
[18] = Moraxella catarrhalis, 5×10^5 CFU/mL, 10 h cultivation at 37° C.
[19] = Proteus mirabilis, 5×10^5 CFU/mL, 10 h cultivation at 37° C.
[20] = Proteus vulgaris, 5×10^5 CFU/mL, 10 h cultivation at 37° C.
[21] = Serratia marcescens, 5×10^5 CFU/mL, 10 h cultivation at 37° C.
[22] = E. coli BL21, 96-well plate, 5×10^5 CFU/mL, 37° C., 10 h
[23] = Pseudomonas aeruginosa, 96-well plate, 5×10^5 CFU/mL, 37° C., 10 h
[24] = Klebsiella pneumonia, 96-well plate, 5×10^5 CFU/mL, 37° C., 10 h
[25] = Enterobacter cloacae, 96-well plate, 5×10^5 CFU/mL, 37° C., 10 h
[26] = Aeromonas hydrophila, 96-well plate, 5×10^5 CFU/mL, 37° C., 10 h
[27] = Citrobacter diversus, 96-well plate, 5×10^5 CFU/mL, 37° C., 10 h
[28] = Moraxella catarrhalis, 96-well plate, 5×10^5 CFU/mL, 37° C., 10 h
[29] = Proteus mirabilis, 96-well plate, 5×10^5 CFU/mL, 37° C., 10 h
[30] = Proteus vulgaris, 96-well plate, 5×10^5 CFU/mL, 37° C., 10 h
[31] = Serratia marcescens, 96-well plate, 5×10^5 CFU/mL, 37° C., 10 h
[32] = E. coli BL21, 10 h cultivation at 37° C., 5×10^5 CFU/mL
[33] = P. aeruginosa, 10 h cultivation at 37° C., 5×10^5 CFU/mL
[34] = K. pneumonia, 10 h cultivation at 37° C., 5×10^5 CFU/mL
[35] = E. cloacae, 10 h cultivation at 37° C., 5×10^5 CFU/mL
[36] = A. hydrophila, 10 h cultivation at 37° C., 5×10^5 CFU/mL
[37] = C. diversus, 10 h cultivation at 37° C., 5×10^5 CFU/mL
[38] = M. catarrhalis, 10 h cultivation at 37° C., 5×10^5 CFU/mL
[39] = P. mirabilis, 10 h cultivation at 37° C., 5×10^5 CFU/mL
[40] = P. vulgaris, 10 h cultivation at 37° C., 5×10^5 CFU/mL
[41] = S. marcescens, 10 h cultivation at 37° C., 5×10^5 CFU/mL
[42] = 10 h cultivation at 37° C., 5×10^5 CFU/mL, two-fold serial dilution
[43] = 96-well plate, 5×10^5 CFU/mL, 37° C., 10 h

PRT1462 (CQCNLHGSVNKFCNPHSGQCECKKEAKGLQCDTCRENFYGLDVTNCKA; listed as Homo sapiens)
100 µg/mL: MIC against P. aeruginosa [3, 13]
25 µg/mL: MIC against E. coli BL21 [2, 12] | MIC against C. diversus [7, 17] | MIC against P. mirabilis [9, 19] | MIC against S. marcescens [11, 21]
12.5 µg/mL: MIC [1] | MIC against K. pneumonia [4, 14] | MIC against E. cloacae [5, 15] | MIC against A. hydrophila [6, 16] | MIC against M. catarrhalis [8, 18] | MIC against P. vulgaris [10, 20]

PRT1370 (GVRSCPGDCRGRGRCESGRCMCWPGYTGRDC; listed as Homo sapiens)
25 µg/mL: MIC [1] | MIC against P. aeruginosa [3, 13] | MIC against E. cloacae [5, 15] | MIC against A. hydrophila [6, 16] | MIC against M. catarrhalis [8, 18] | MIC against P. vulgaris [10, 20]
50 µg/mL: MIC against K. pneumonia [4, 14] | MIC against P. mirabilis [9, 19]
12.5 µg/mL: MIC against E. coli BL21 [2, 12] | MIC against C. diversus [7, 17] | MIC against S. marcescens [11, 21]

PRT1243 (FGESCEQQCPHCRHGEACEPDTGHCQRCDPGWLGPRCE; listed as Homo sapiens)
25 µg/mL: MIC against M. catarrhalis [8, 28] | MIC against P. vulgaris [10, 30]
12.5 µg/mL: MIC [1] | MIC against P. aeruginosa [3, 23] | MIC against E. cloacae [5, 25] | MIC against C. diversus [7, 27] | MIC against S. marcescens [11, 31]
50 µg/mL: MIC against E. coli BL21 [2, 22] | MIC against K. pneumonia [4, 24] | MIC against A. hydrophila [6, 26] | MIC against P. mirabilis [9, 29]

PRT849 (CPCSAVTSTGSCSIKSSELEPECDQCKDGYIGPNCNKCENGYYNFDSICRK; listed as Homo sapiens)
12.5 µg/mL: MIC [1] | MIC (μg/mL) E. coli BL21 [2, 32] | MIC (μg/mL) P. aeruginosa [3, 33] | MIC (μg/mL) K. pneumonia [4, 34] | MIC (μg/mL) E. cloacae [5, 35] | MIC (μg/mL) C. diversus [7, 37] | MIC (μg/mL) P. mirabilis [9, 39] | MIC (μg/mL) P. vulgaris [10, 40]
25 µg/mL: MIC (μg/mL) A. hydrophila [6, 36] | MIC (μg/mL) M. catarrhalis [8, 38] | MIC (μg/mL) S. marcescens [11, 41]

PRT1177 (DANECEAKPCVNAKSCKNLIASYYCDCLPGWMGQNCD; listed as Homo sapiens)
50 µg/mL: MIC [1] | MIC P. aeruginosa [3, 42] | MIC E. cloacae [5, 42] | MIC C. diversus [7, 42] | MIC P. mirabilis [9, 42]
25 µg/mL: MIC S. marcescens [11, 42]
12.5 µg/mL: MIC E. coli BL21 [2, 42] | MIC K. pneumonia [4, 42] | MIC A. hydrophila [6, 42] | MIC M. catarrhalis [8, 42] | MIC P. vulgaris [10, 42]

PRT610 (CSCDPSGSIDECNIETGRCVCKDNVEGFNCERCKPGFFNLESSNPRGCTP; listed as Homo sapiens)
12.5 µg/mL: MIC P. aeruginosa [3, 43] | MIC A. hydrophila [6, 43] | MIC M. catarrhalis [8, 43] | MIC P. vulgaris [10, 43]
50 µg/mL: MIC [1] | MIC E. cloacae [5, 43] | MIC C. diversus [7, 43] | MIC P. mirabilis [9, 43] | MIC S. marcescens [11, 43]
25 µg/mL: MIC E. coli BL21 [2, 43] | MIC K. pneumonia [4, 43]

PRT816 (WGPDCSHPCNCSAGHGSCDAISGLCLCEAGYVGPRCE; listed as Homo sapiens)
50 µg/mL: MIC (μg/mL) E. coli BL21 [2, 32] | MIC (μg/mL) K. pneumonia [4, 34] | MIC (μg/mL) M. catarrhalis [8, 38]
25 µg/mL: MIC [1] | MIC (μg/mL) E. cloacae [5, 35] | MIC (μg/mL) C. diversus [7, 37] | MIC (μg/mL) P. mirabilis [9, 39] | MIC (μg/mL) P. vulgaris [10, 40]
12.5 µg/mL: MIC (μg/mL) A. hydrophila [6, 36] | MIC (μg/mL) S. marcescens [11, 41]
100 µg/mL: MIC (μg/mL) P. aeruginosa [3, 33]

PRT447 (DVDECAQALHDRRPSQDCHNLSGSYQCTCPDGYRKIGPE; listed as Homo sapiens)
25 µg/mL: MIC against E. coli BL21 [2, 43] | MIC against K. pneumonia [4, 43] | MIC against A. hydrophila [6, 43] | MIC against M. catarrhalis [8, 43]
50 µg/mL: MIC [1] | MIC against E. cloacae [5, 43] | MIC against P. mirabilis [9, 43] | MIC against S. marcescens [11, 43]
12.5 µg/mL: MIC against P. aeruginosa [3, 43] | MIC against C. diversus [7, 43] | MIC against P. vulgaris [10, 43]

PRT509 (CNCSTVGSLDFQCNVNTGQCNCHPKFSGAKCTECSRGHWNYPRCNL; listed as Homo sapiens)
25 µg/mL: MIC against E. coli BL21 [2, 43] | MIC against K. pneumonia [4, 43] | MIC against S. marcescens [11, 43]
12.5 µg/mL: MIC [1] | MIC against P. aeruginosa [3, 43] | MIC against E. cloacae [5, 43] | MIC against A. hydrophila [6, 43] | MIC against C. diversus [7, 43] | MIC against M. catarrhalis [8, 43] | MIC against P. mirabilis [9, 43] | MIC against P. vulgaris [10, 43]

PRT988 (DVDECQLQPNACHNGGTCFNTLGGHSCVCVNGWTGESCS; listed as Homo sapiens)
50 µg/mL: MIC ([2]; E. coli BL21, 10 h cultivation at 37° C.) | MIC ([4]; K. pneumonia, 10 h cultivation at 37° C.) | MIC ([6]; A. hydrophila, 10 h cultivation at 37° C.) | MIC ([8]; M. catarrhalis, 10 h cultivation at 37° C.) | MIC ([10]; P. vulgaris, 10 h cultivation at 37° C.)
12.5 µg/mL: MIC [1] | MIC ([3]; P. aeruginosa, 10 h cultivation at 37° C.) | MIC ([5]; E. cloacae, 10 h cultivation at 37° C.) | MIC ([7]; C. diversus, 10 h cultivation at 37° C.) | MIC ([9]; P. mirabilis, 10 h cultivation at 37° C.) | MIC ([11]; S. marcescens, 10 h cultivation at 37° C.)

PRT429 (DVNECEAQRCSQECANIYGSYQCYCRQGYQLAEDGHTCT; listed as Homo sapiens)
50 µg/mL: MIC [3, 33] | MIC [5, 35] | MIC [7, 37] | MIC [10, 40]
25 µg/mL: MIC [9, 39] | MIC [11, 41]
12.5 µg/mL: MIC [1] | MIC [2, 32] | MIC [4, 34] | MIC [6, 36] | MIC [8, 38]

PRT154 (DVDECSLAEKTCVRKNENCYNTPGSYVCVCPDGFEETEDACV; listed as Homo sapiens)
50 µg/mL: MIC (μg/mL) E. coli BL21 [2, 32] | MIC (μg/mL) E. cloacae [5, 35] | MIC (μg/mL) M. catarrhalis [8, 38]
12.5 µg/mL: MIC [1] | MIC (μg/mL) P. aeruginosa [3, 33] | MIC (μg/mL) A. hydrophila [6, 36] | MIC (μg/mL) P. vulgaris [10, 40]
25 µg/mL: MIC (μg/mL) K. pneumonia [4, 34] | MIC (μg/mL) C. diversus [7, 37] | MIC (μg/mL) P. mirabilis [9, 39] | MIC (μg/mL) S. marcescens [11, 41]

PRT17 (AGHPCTRASGHPCLNGASCVPREAAYVCLCPGGFSGPHCE; listed as Homo sapiens)
12.5 µg/mL: MIC [1] | MIC (μg/mL) E. coli BL21 [2, 22] | MIC (μg/mL) P. aeruginosa [3, 23] | MIC (μg/mL) A. hydrophila [6, 26] | MIC (μg/mL) P. mirabilis [9, 29]
50 µg/mL: MIC (μg/mL) E. cloacae [5, 25] | MIC (μg/mL) C. diversus [7, 27] | MIC (μg/mL) P. vulgaris [10, 30]
25 µg/mL: MIC (μg/mL) K. pneumonia [4, 24] | MIC (μg/mL) M. catarrhalis [8, 28] | MIC (μg/mL) S. marcescens [11, 31]

Reference: patent US9833497B2, “Human originated EGF domain proteins and use of the same” (CHENGDU SOURCEBIO LIMITED-LIABILITY COMPANY, priority 2013, dated 2017)
